Measurements as given in ChEMBL document CHEMBL2074525, “Screening of multidrug-resistance sensitive drugs by in situ brain perfusion in P-glycoprotein-deficient mice” (Pharm Res, 2001).

Target: ATP-dependent translocase ABCB1 (Mus musculus, UniProt P21447)
Assay: TP_TRANSPORTER: increase in blood-brain coefficient in mdr1a(-/-) mouse
Assay type: functional, organism-based
Conditions: in vivo

Chain of ATP-dependent translocase ABCB1 (P21447 whole entry): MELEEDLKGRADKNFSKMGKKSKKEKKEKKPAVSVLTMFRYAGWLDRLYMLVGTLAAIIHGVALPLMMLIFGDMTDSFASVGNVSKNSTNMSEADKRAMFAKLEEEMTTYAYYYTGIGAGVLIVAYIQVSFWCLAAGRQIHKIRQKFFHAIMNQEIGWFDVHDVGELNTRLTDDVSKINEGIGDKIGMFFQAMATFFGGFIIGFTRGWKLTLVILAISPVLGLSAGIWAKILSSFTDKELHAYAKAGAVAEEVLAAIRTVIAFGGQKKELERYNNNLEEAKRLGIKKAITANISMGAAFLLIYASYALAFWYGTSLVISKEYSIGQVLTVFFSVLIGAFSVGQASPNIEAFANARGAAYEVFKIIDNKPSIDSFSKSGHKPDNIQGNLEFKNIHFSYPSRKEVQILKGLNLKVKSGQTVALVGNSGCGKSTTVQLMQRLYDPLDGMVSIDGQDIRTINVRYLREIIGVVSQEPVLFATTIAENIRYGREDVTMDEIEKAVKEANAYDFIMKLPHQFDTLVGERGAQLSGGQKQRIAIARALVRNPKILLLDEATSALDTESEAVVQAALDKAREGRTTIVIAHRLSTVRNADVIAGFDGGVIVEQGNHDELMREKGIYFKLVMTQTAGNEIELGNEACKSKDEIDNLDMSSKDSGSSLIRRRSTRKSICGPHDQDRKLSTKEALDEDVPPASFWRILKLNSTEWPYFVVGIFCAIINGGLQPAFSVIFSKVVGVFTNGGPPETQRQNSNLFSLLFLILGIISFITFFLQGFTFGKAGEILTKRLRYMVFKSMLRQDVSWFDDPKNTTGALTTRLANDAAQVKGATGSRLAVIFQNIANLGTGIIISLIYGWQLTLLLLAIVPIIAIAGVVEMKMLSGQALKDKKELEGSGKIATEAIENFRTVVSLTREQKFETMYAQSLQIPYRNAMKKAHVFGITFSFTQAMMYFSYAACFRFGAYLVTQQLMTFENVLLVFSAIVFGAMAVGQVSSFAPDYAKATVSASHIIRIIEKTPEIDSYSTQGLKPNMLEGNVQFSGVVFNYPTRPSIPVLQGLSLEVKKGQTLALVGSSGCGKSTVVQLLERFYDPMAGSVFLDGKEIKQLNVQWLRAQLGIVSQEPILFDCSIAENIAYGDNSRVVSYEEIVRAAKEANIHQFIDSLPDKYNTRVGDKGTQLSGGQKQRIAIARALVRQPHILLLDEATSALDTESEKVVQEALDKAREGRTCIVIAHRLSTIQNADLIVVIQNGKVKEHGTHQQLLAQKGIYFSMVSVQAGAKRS

COc1cccc2c1C(=O)c1c(O)c3c(c(O)c1C2=O)C[C@@](O)(C(=O)CO)C[C@@H]3O[C@H]1C[C@H](N)[C@H](O)[C@H](C)O1 [DOXORUBICIN]
Activity: substrate [+]
